Like-named read-outs stand apart in the source and are kept apart here. Values belong to the molecule of their own block, whether it stands above or below them. Bridge positions count the residues as written; N and C are the ends. Square brackets hold non-standard residues; d marks the D form. Peptide text beside a SMILES is read from it. Nle = CCCC[C@H](N)C(=O)O; Ava = NCCCCC(=O)O
Key:
hMC5-R [1] = target: T1, hMC5-R (Homo sapiens, UniProt P33032); experiment: cyclic AMP bioassay (ECL) in CHO-K1 cells; assay type: cell-based
T1 construct: expressed in transfected cells; host or cells: CHO-K1
Protocol: (§1) Intracellular cyclic AMP (cAMP) levels were determined by an electrochemiluminescence (ECL) assay (Meso Scale Discovery®, Gaithersburg, Md.; referred to hereinafter as MSD). […] Transgenic CHO-K1 cells stably expressing hMC receptor subtypes 1, 3, 4 or 5 were dispensed at a density of approximately 7,000 cells/well in 384-well Multi-Array®plates (MSD) containing integrated carbon electrodes and coated with anti-cAMP antibody. Increasing concentrations of the test compounds were added and the cells were incubated for approximately 40 minutes at approximately 37° C. […] At the end of the second incubation period read buffer (Tris-buffered solution containing an ECL co-reactant and Triton X-100 at ph 7.8) was added and the cAMP levels in the cell lysates were immediately determined by ECL detection with a Sector Imager 6000 Reader® (MSD). Data were analyzed using a computer-assisted non-linear regression analysis (XL fit; IDBS) and reported as either an EC50 value or a Kb value.
(§2) The Kb value reflects the potency of an antagonist and is determined by Schild analysis. In brief, concentration-response curves of an agonist are carried out in the presence of increasing concentrations of an antagonist. […] It is calculated by extrapolating the line on a Schild plot to zero on the y-axis.

hMC4-R = target: T2, hMC4-R (Homo sapiens, UniProt P32245); experiment: cyclic AMP bioassay (ECL) in CHO-K1 cells; assay type: cell-based
T2 construct: expressed in transfected cells; host or cells: CHO-K1

hMC3-R = target: T3, hMC3-R (Homo sapiens, UniProt P41968); experiment: cyclic AMP bioassay (ECL) in CHO-K1 cells; assay type: cell-based
T3 construct: expressed in transfected cells; host or cells: CHO-K1
Protocol: as §1, §2

hMC5-R [2] = target: T1, hMC5-R; experiment: Radioligand binding assay, [125I]-NDP-α-MSH competition, CHO-K1 membranes
Protocol: Cellular membranes used for the in vitro receptor binding assays were obtained from transgenic CHO-K1 cells stably expressing hMC-R receptor subtypes 1, 3, 4 or 5. […] The pellets were resuspended in the same buffer and centrifuged at 50,000 g for 10 minutes at approximately 4° C. The washed pellets containing the cellular membranes were stored at approximately −80° C.
Cell membranes (1-10 μg protein/well) prepared as described above were incubated in 50 mM Tris-HCl at pH 7.4 containing 0.2% bovine serum albumin (BSA), 5 mM MgCl2, 1 mM CaCl2 and 0.1 mg/mL bacitracin, with increasing concentrations of the test compound and 0.1-0.3 nM [^25I]-NDP-α-MSH for approximately 90-120 minutes at approximately 37° C. […] Filters were washed three times with 50 mM Tris-HCl at pH 7.4 at a temperature of approximately 0-4° C. and then assayed for radioactivity using a Packard Topcount® scintillation counter. Binding data were analyzed by computer-assisted non-linear regression analysis (XL fit; IDBS).

hMC1-R = target: T4, hMC1-R (Homo sapiens, UniProt Q01726); experiment: cyclic AMP bioassay (ECL) in CHO-K1 cells; assay type: cell-based
T4 construct: expressed in transfected cells; host or cells: CHO-K1
T4 sequence (Q01726 whole entry): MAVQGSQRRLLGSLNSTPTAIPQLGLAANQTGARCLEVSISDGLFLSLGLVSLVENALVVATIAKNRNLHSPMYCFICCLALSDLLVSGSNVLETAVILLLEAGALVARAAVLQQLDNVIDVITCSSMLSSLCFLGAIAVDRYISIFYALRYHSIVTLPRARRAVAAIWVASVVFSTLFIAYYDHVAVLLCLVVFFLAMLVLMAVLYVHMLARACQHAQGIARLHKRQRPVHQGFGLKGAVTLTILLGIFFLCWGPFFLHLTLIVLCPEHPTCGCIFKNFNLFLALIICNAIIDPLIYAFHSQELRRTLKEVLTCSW
Protocol: as §1, §2

T2 sequence (P32245 whole entry): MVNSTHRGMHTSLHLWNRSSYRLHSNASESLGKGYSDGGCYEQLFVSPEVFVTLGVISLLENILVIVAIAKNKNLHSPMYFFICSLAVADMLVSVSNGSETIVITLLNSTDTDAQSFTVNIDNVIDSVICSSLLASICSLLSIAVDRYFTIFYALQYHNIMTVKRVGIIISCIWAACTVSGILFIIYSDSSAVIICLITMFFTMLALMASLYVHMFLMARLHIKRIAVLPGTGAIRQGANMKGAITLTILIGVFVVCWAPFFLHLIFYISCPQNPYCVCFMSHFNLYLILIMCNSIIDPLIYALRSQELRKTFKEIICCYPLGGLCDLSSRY
T1 sequence (P33032 whole entry): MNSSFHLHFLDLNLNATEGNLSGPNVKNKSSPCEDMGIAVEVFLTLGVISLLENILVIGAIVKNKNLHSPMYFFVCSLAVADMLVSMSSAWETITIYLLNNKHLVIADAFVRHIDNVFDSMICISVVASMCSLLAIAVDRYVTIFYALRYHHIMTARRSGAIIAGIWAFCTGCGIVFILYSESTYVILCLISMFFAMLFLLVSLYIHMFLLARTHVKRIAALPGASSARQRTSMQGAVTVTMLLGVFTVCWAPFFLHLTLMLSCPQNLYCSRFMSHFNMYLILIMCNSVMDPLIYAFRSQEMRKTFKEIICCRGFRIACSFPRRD
T3 sequence (P41968 whole entry): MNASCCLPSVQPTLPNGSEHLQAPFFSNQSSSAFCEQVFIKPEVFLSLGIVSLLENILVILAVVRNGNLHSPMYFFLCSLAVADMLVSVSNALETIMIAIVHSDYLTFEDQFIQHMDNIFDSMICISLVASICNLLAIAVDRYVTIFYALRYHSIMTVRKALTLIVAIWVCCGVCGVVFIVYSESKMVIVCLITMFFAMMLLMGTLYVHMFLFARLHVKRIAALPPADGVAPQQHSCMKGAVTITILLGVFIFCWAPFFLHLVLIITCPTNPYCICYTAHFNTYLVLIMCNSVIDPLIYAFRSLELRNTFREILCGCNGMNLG

SMILES: CC(=O)N[C@H]1CSSC[C@@H](C(=O)N2CCC[C@H]2C(=O)N2CCC[C@H]2C(=O)N[C@@H](CCCNC(=N)N)C(=O)N[C@@H](CC(=O)O)C(=O)NCCC(=O)N[C@@H](CCCNC(=N)N)C(=O)N[C@@H](CCCNC(=N)N)C(=O)N[C@@H](CCCNC(=N)N)C(=O)N[C@@H](CCCNC(=N)N)C(=O)N[C@@H](CCCNC(=N)N)C(=O)N[C@@H](CCC(N)=O)C(=O)N[C@@H](CCCNC(=N)N)C(=O)N[C@@H](CCCNC(=N)N)C(=O)N[C@@H](CCCNC(=N)N)C(N)=O)NC(=O)[C@H](C)NC(=O)[C@H](Cc2csc3ccccc23)NC(=O)[C@H](CCCNC(=N)N)NC(=O)[C@@H](Cc2ccc3ccccc3c2)NC(=O)[C@H](Cc2c[nH]cn2)NC(=O)[C@H](CCC(=O)O)NC1=O
EC50 (hMC5-R [1]): > 10000 nM
Kb (hMC4-R): 21.2 nM
Kb (hMC3-R): 20.2 nM
Ki (hMC5-R [2]; Ki hMC5-R, Table 6): 48.3 nM
EC50 (hMC1-R): 38.3 nM

SMILES: CC(=O)N[C@H]1CSSC[C@@H](C(=O)N2CCC[C@H]2C(=O)N2CCC[C@H]2C(=O)N[C@@H](CCCCN)C(=O)N[C@@H](CC(=O)O)C(=O)NCCC(=O)N[C@@H](CCCNC(=N)N)C(=O)N[C@@H](CCCCN)C(=O)N[C@@H](CCCNC(=N)N)C(=O)N[C@@H](CCCNC(=N)N)C(=O)N[C@@H](CCCNC(=N)N)C(=O)N[C@@H](CCC(N)=O)C(=O)N[C@@H](CCCNC(=N)N)C(=O)N[C@@H](CCCNC(=N)N)C(=O)N[C@@H](CCCNC(=N)N)C(N)=O)NC(=O)[C@H](C)NC(=O)[C@H](Cc2csc3ccccc23)NC(=O)[C@H](CCCNC(=N)N)NC(=O)[C@@H](Cc2ccc3ccccc3c2)NC(=O)[C@H](Cc2c[nH]cn2)NC(=O)[C@H](CCC(=O)O)NC1=O
EC50 (hMC5-R [1]): 100 nM
Kb (hMC4-R): 4.59 nM
Kb (hMC3-R): 106 nM
Ki (hMC5-R [2]; Ki hMC5-R, Table 6): 15.5 nM
EC50 (hMC1-R): 19.1 nM

SMILES: CC(=O)N[C@H](CCCNC(=N)N)C(=O)N[C@H]1CSSC[C@@H](C(N)=O)NC(=O)[C@H](Cc2c[nH]c3ccccc23)NC(=O)[C@H](CCCNC(=N)N)NC(=O)[C@@H](Cc2ccccc2)NC(=O)[C@H](Cc2c[nH]cn2)NC(=O)[C@@H](C)NC1=O [Ac-D-Arg-c(Cys-D-Ala-His-D-Phe-Arg-Trp-Cys)-NH2]
EC50 (hMC5-R [1]): 1020 nM
Ki (hMC5-R [2]; Ki hMC5-R, Table 5): 352 nM

Ki (hMC5-R [2]; Table 5, read-out: Ki hMC5-R): > 10000 nM
SMILES: CC(=O)N[C@H]1CSSC[C@@H](C(N)=O)NC(=O)[C@H](C)NC(=O)[C@H](Cc2c[nH]c3ccccc23)NC(=O)[C@H](CCCNC(=N)N)NC(=O)[C@@H](Cc2ccccc2)NC(=O)[C@H](Cc2c[nH]cn2)NC(=O)[C@@H](C)NC1=O [Ac-c(Cys-D-Ala-His-D-Phe-Arg-Trp-Ala-Cys)-NH2] (Ac-C[dA]H[dF]RWAC-NH2; disulfide 1-8 (inferred))

EC50 (hMC5-R [1]; Table 11, read-out: EC50 hMC5): 335 nM
EC50 (hMC4-R; Table 11, read-out: EC50 hMC4): 0.0687 nM
EC50 (hMC3-R; Table 11, read-out: EC50 hMC3): 3.63 nM
EC50 (hMC1-R; Table 11, read-out: EC50 hMC1): 9.97 nM
SMILES: N=C(N)NCCC[C@@H]1NC(=O)[C@@H](Cc2ccccc2)NC(=O)[C@H](Cc2cnc[nH]2)NC(=O)[C@H](CCC(=O)O)NC(=O)[C@@H](NC(=O)[C@H](CCCNC(=N)N)N2C(=O)CNC2=O)CSSC[C@@H](C(N)=O)NC(=O)[C@H](Cc2c[nH]c3ccccc23)NC1=O [Hydantoin(C(O)-(Gly-Arg))-c(Cys-Glu-His-D-Phe-Arg-Trp-Cys)-NH2]

SMILES: CCCC[C@@H]1NC(=O)N(CC(=O)N[C@H]2CSSC(C)(C)[C@@H](C(N)=O)NC(=O)[C@H](Cc3c[nH]c4ccccc34)NC(=O)[C@H](CCCNC(=N)N)NC(=O)[C@@H](Cc3ccccc3)NC(=O)[C@H](Cc3cnc[nH]3)NC(=O)[C@@H](C)NC2=O)C1=O [Hydantoin(C(O)-(Nle-Gly))-c(Cys-D-Ala-His-D-Phe-Arg-Trp-Pen)-NH2]
EC50 (hMC5-R [1]): 352 nM
EC50 (hMC4-R): 0.584 nM
EC50 (hMC3-R): 21.5 nM
EC50 (hMC1-R): 17 nM

EC50 (hMC5-R [1]; Table 9A/9B, read-out: EC50 hMC5-R): 3.1 nM
EC50 (hMC4-R; Table 9A/9B, read-out: EC50 hMC4-R): 0.018 nM
EC50 (hMC3-R; Table 9A/9B, read-out: EC50 hMC3-R): 0.27 nM
EC50 (hMC1-R; Table 9A/9B, read-out: EC50 hMC1-R): 0.31 nM
SMILES: CCCC[C@H](N)C(=O)N[C@H]1CSSC[C@@H](C(N)=O)NC(=O)CCCCNC(=O)[C@H](Cc2c[nH]c3ccccc23)NC(=O)[C@H](CCCNC(=N)N)NC(=O)[C@@H](Cc2ccccc2)NC(=O)[C@H](Cc2c[nH]cn2)NC1=O [Nle-c(Cys-His-D-Phe-Arg-Trp-Apn-Cys)-NH2] (H-[Nle]CH[dF]RW[Ava]C-NH2; disulfide 2-8)
